In patent US9492436B2, “Azabenzimidazole derivatives” (Boehringer Ingelheim International GmbH, priority 2013, dated 2016):
Values after ≈ are worked out from the molar mass of the structure shown.

Columns and labels:
plasma proteins [1] = test: Plasma protein binding by equilibrium dialysis, rat plasma; assay type: in vitro ADME; conditions: 37° C.
Protocol: (§1) Equilibrium dialysis (ED) technique is used to determine the approximate in vitro fractional binding of test compounds to plasma proteins (human, rat mouse):
(§2) Teflon dialysis cells or RED-devices are used. Each cell consists of a donor and an acceptor chamber, separated by an ultrathin semipermeable membrane (cutoff 5-10 kDa, high permeability).
(§3) Stock solutions for each test compound are prepared in DMSO. Plasma (anticoagulant EDTA) is spiked with test compound and then transferred into the donor chamber, while dialysis buffer (PBS containing Dextran, pH 7.4) is dispensed into the acceptor chamber.
(§4) Dextran (Leuconostoc ssp, MW approx. 40000, No. 31389, Fluka) concentration [g/L] in PBS for species: • human: 40 g/L buffer • rat: 37 g/L buffer • mouse 32 g/L buffer.
(§5) Incubation is carried out for up to 6 hours (standard 3 h) under rotation at 37° C. After the dialysis period aliquots of both dialysates are analysed using HPLC-MS/MS.
(§6) Percent bound is calculated according to the equation: % bound=(Cp−Cb/Cp)×100 • Cp=plasma concentration • Cb=buffer concentration
(§7) Percent free is calculated according to the equation: % free=100−% bound

[2] = molecular target: T1, AMPK complex 1 (containing alpha1beta1gamma1) (Homo sapiens, UniProt Q13131+Q9Y478); test: In vitro AMPK activation assay (ADP-Glo Kinase Assay); assay type: biochemical; conditions: 30 μM ATP, 1 μM peptide, 60 min, room temperature
T1 construct: GST (Glutathion S transferase) (N); made in house; host or cells: baculovirus; virus made in Sf9, expression in High Five cells
T1 sequence (Q13131 whole entry): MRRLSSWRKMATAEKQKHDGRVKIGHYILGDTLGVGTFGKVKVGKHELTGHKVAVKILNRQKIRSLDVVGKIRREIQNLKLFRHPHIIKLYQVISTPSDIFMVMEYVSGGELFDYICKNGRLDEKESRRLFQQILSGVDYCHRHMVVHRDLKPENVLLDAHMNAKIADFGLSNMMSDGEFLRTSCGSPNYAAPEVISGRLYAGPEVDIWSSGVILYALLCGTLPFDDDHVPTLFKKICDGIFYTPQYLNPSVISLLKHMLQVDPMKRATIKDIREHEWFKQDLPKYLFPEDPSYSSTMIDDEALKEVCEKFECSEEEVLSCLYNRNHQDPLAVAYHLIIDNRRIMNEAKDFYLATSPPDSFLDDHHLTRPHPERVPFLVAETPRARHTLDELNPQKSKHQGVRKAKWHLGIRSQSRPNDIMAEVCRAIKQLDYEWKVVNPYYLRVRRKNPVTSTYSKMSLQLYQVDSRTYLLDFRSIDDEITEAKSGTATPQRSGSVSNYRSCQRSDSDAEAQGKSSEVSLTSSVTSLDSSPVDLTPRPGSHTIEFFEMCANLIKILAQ
T1 sequence (Q9Y478 whole entry): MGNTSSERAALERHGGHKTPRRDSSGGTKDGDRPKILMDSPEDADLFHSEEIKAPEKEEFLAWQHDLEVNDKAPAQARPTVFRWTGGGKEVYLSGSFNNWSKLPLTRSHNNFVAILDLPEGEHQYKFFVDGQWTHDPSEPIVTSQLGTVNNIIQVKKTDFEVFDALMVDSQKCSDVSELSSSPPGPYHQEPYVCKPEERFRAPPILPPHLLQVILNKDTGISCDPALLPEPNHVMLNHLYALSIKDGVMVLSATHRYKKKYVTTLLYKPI
T1 sequence (P54619 whole entry partner): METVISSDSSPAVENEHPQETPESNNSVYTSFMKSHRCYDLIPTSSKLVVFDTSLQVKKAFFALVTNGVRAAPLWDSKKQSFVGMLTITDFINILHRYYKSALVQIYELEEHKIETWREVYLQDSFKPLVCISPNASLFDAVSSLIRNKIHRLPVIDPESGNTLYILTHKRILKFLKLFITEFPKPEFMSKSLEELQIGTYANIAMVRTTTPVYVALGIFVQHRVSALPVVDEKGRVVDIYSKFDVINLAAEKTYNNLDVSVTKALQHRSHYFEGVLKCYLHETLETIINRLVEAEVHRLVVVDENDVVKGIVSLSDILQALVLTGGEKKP
How it was run: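 GST-tagged human AMPK alpha1beta1gamma1 expressed in insect cells, incubated with 1 μM peptide substrate and 30 μM ATP for 60 min at room temperature, 0.1% DMSO. ADP-Glo luminescence as % of vehicle control (AMP 30 μM high reference); EC50 from 4-parameter fit; activation above 100%.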

[3] = Aqueous solubility (buffer vs acetonitrile/water, 24 h shaking, LC-UV); assay type: physicochemical; conditions: kinetic from dmso stock, 2.5% DMSO, ">" = more than 90% dissolved
Protocol: The aqueous solubility of the compounds of the invention is determined by comparing the amount dissolved in buffer to the amount in an acetonitrile/water (1/1) solution. Starting from a 10 mM DMSO stock solution aliquots are diluted with acetonitrile/water (1/1) or buffer resp. After 24 h of shaking, the solutions are filtrated and analyzed by LC-UV. The amount dissolved in buffer is compared to the amount in the acetonitrile solution.
Solubility is usually being measured from 0.001 to 0.125 mg/ml at a DMSO concentration of 2.5%. If more than 90% of the compound is dissolved in buffer, the value is marked with “>”.

plasma proteins [4] = test: Plasma protein binding by equilibrium dialysis, mouse plasma; assay type: in vitro ADME; conditions: 37° C.
Protocol: as §1, §2, §3, §4, §5, §6, §7

plasma proteins [5] = test: Plasma protein binding by equilibrium dialysis, human plasma; assay type: in vitro ADME; conditions: 37° C.
Protocol: as §1, §2, §3, §4, §5, §6, §7

| Plasma Protein Binding (plasma proteins [1]) | solubility at 24 h ([3]; pH 2.2 buffer) | solubility at 24 h ([3]; pH 4.5 buffer) | solubility at 24 h ([3]; pH 6.8 buffer) | Plasma Protein Binding (plasma proteins [4]) | Plasma Protein Binding (plasma proteins [5]) | Structure (SMILES) | EC50 [2] |
| --- | --- | --- | --- | --- | --- | --- | --- |
| 98.67 % bound | 17 µg/mL (≈ 31.4 µM) | 2 µg/mL (≈ 3.7 µM) | 1 µg/mL (≈ 1.85 µM) | 98.68 % bound | 98.55 % bound | CS(C)(=O)=Nc1ccc(-c2ccc(-c3nc4[nH]c(O[C@@H]5CO[C@H]6[C@@H]5OC[C@H]6O)nc4cc3Cl)cc2)cc1 [Example 2, N-(4′-(6-Chloro-2-((3R,3aR,6R,6aR)-6-hydroxyhexahydrofuro[3,2-b]furan-3-yloxy)-3H-imidazo[4,5-b]pyridin-5-yl)biphenyl-4-yl)-S,S-dimethylsulfoximide] | 3 nM |
| 98.23 % bound | 105 µg/mL (≈ 194 µM) | < 1 µg/mL | < 1 µg/mL | 98.64 % bound | 98.92 % bound | CN=S(C)(=O)c1ccc(-c2ccc(-c3nc4[nH]c(O[C@@H]5CO[C@H]6[C@@H]5OC[C@H]6O)nc4cc3Cl)cc2)cc1 (stereo partly drawn) [Example 10, (3R,3aR,6R,6aR)-6-(6-Chloro-5-(4′-(N,S-dimethylsulfonimidoyl)biphenyl-4-yl)-3H-imidazo[4,5-b]pyridin-2-yloxy)hexahydrofuro[3,2-b]furan-3-ol] | 4 nM |
| 98.94 % bound | > 119 µg/mL | 5 µg/mL (≈ 9.01 µM) | < 1 µg/mL | 99.23 % bound | 98.48 % bound | CS(C)(=O)=NCc1ccc(-c2ccc(-c3nc4[nH]c(O[C@@H]5CO[C@H]6[C@@H]5OC[C@H]6O)nc4cc3Cl)cc2)cc1 [Example 45, N-(4′-(6-Chloro-2-((3R,3aR,6R,6aR)-6-hydroxyhexahydrofuro[3,2-b]furan-3-yloxy)-3H-imidazo[4,5-b]pyridin-5-yl)biphenyl-4-ylmethyl)-S,S-dimethylsulfoximide] | 29 nM |
